Measurements from patent publication US20040014144A1, “Method of screening for substances acting on MSK1” (Leo Pharmaceutical Products Ltd. A/S, priority 1999, published 2004).

How the values were obtained:
[1] = test system: TNF-α secretion in THP-1 cells; assay: LPS induced secretion of TNF-α in THP-1 cells, enzyme immuno assay; assay type: cell-based, human; conditions: for inhibition of secretion of TNF-α: THP-1 cells, 1 μM of each compound, 60 min preincubation, 1 μg/ml LPS 5 hours
Protocol: (§1) The mononuclear cells (PBMC) were isolated from human peripheral blood by Lymphoprep® fractionation (Nycomed, Norway) and the THP-1 cells were obtained from the American Type Culture Collection (Accession No. TIB-202). Both cell lines were suspended in RPMI 1640 with 2% fetal calf serum (FCS), 2 mM L-glutamine, 100 U/ml penicillin and […] streptomycin. […] Louis, Mo., USA). […] The levels of IL-1β and TNF-α were measured in the culture supernatant by enzyme immuno assays (monoclonal antibodies were obtained from R & D Systems, Abingdon, UK).

[2] = test system: NFκB transcriptional activity in THP-1 cells; assay: NFκB-luciferase reporter gene assay in LPS stimulated THP-1 cells; assay type: cell-based, human; conditions: for reporter gene (luciferase) activity, % of the control value: THP-1 cells transfected with pBIIX, 1 μM of each compound, 1 hour pretreatment, 1 μg/ml LPS 5 h
Protocol: All transfections were performed in triplicate.

IL-1β secretion in PBMC = assay: LPS induced secretion of IL-1β in PBMC, enzyme immuno assay; assay type: cell-based, human; conditions: for inhibition of secretion of IL-1β: 30 min preincubation, 1 μg/ml LPS 18 hours
Protocol: as §1

TNF-α secretion in PBMC = assay: LPS induced secretion of TNF-α in PBMC, enzyme immuno assay; assay type: cell-based, human; conditions: for inhibition of secretion of TNF-α: 30 min preincubation, 1 μg/ml LPS 18 hours
Protocol: as §1

[3] = test system: THP-1 or peripheral blood mononuclear cells (PBMC); assay: LPS induced secretion of TNF-α and IL-1β in THP-1 or PBMC (summary statement); assay type: cell-based, human
Protocol: as §1

MSK1 = MSK1 (Homo sapiens, UniProt O75582); conditions: from reference (5); cited from earlier work
Chain of MSK1 (O75582 whole entry): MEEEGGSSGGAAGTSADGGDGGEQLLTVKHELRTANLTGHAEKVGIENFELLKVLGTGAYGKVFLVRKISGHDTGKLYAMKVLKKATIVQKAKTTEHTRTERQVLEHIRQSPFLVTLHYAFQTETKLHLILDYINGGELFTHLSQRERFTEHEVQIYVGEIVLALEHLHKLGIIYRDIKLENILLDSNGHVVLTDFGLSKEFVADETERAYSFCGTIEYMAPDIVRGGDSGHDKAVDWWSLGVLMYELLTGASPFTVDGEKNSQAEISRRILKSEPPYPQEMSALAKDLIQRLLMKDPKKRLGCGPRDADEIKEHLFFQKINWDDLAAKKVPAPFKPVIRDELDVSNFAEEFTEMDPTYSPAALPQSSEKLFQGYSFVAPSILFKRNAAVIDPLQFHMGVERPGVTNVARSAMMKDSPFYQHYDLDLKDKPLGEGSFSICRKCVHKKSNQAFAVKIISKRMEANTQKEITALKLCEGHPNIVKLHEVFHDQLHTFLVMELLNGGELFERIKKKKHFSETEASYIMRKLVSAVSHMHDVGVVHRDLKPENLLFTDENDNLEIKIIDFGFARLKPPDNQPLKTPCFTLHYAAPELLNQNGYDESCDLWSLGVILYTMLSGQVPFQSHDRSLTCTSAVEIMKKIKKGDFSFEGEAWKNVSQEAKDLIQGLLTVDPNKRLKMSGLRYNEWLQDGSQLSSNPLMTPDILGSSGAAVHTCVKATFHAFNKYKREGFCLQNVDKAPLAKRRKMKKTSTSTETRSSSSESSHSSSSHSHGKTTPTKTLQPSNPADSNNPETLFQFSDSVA

| Compound | inhibition of secretion of TNF-α [1] [%] | reporter gene (luciferase) activity, % of the control value [2] | inhibition of secretion of IL-1β (IL-1β secretion in PBMC; 10 μM compound) | inhibition of secretion of TNF-α (TNF-α secretion in PBMC; 10 μM compound) | inhibition at 1 µM ([1]; Homo sapiens, THP-1, read-out: inhibition of secretion of TNF-α) [%] | inhibition at 1 µM (IL-1β secretion in PBMC; Homo sapiens, read-out: inhibition of secretion of IL-1β) [%] | inhibition at 1 µM (TNF-α secretion in PBMC; Homo sapiens, read-out: inhibition of secretion of TNF-α) [%] | LPS induced NFκB transcriptional activity ([2]; THP-1 cells, summary statement) | inhibition of secretion of IL-1β (IL-1β secretion in PBMC; 1 μM compound) | LPS induced secretion of TNF-α and IL-1β [3] | inhibition of MSK1 activity in vitro (MSK1) | inhibition of secretion of TNF-α (TNF-α secretion in PBMC; 1 μM compound) |
| --- | --- | --- | --- | --- | --- | --- | --- | --- | --- | --- | --- | --- |
| COc1cccc(-c2cc(=O)c3ccccc3o2)c1N [PD98059] | 5 | no effect | about 40% | about 40% |  |  |  |  |  |  |  |  |
| C[S+]([O-])c1ccc(-c2nc(-c3ccncc3)c(-c3ccc(F)cc3)[nH]2)cc1 (stereo not drawn) [SB203580] |  | 49% |  |  | 30 | 40 to 60 | 40 to 60 |  |  |  |  |  |
| Cn1cc(C2=C(c3cn(CCCSC(=N)N)c4ccccc34)C(=O)NC2=O)c2ccccc21 [Ro318220] | 50 | 15% |  |  |  |  |  | strongly inhibited | approximately 90% | strongly inhibited | potent inhibitor | approximately 90% |
